{"source": "patent US20200190062A1", "about": "“HETEROCYCLIC COMPOUND AND PHARMACEUTICAL COMPOSITION COMPRISING SAME” (BEYONDBIO INC., priority 2015, published 2020)", "key": {"Aβ (amyloid β protein)": {"tested_on": "Aβ (amyloid β protein)", "assay": "Inhibition of Aβ generation in B103/APP cells (Aβ42 ELISA)", "format": "cell-based", "settings": "Rattus norvegicus, 72 hrs", "procedure": "The APP gene was inserted into B103 cells so that APP could be stably expressed and the resulting B103/APP cells were used to confirm inhibition of APP phosphorylation and Aβ generation.\nFurther, to confirm whether Aβ generation is reduced due to APP phosphorylation inhibition, 5×10^5 B103/APP cells were cultured in a 6-well plate for 16 hrs. Afterwards, the compounds obtained in the above Examples were added at 100 nM, 75 nM, 50 nM, 25 nM, 12.5 nM to a medium containing 500 ug/ml of G418 and 0.5% FBS and incubated for 72 hrs. After 72 hrs, the amount of Aβ was quantified using the medium by Human Aβ42 ELISA kit (Invitrogen)."}, "[1]": {"tested_on": "human colon carcinoma cell line HCT116", "assay": "Cell cycle change by flow cytometry, cancer cells", "format": "cell-based", "settings": "24 hrs", "procedure": "A human colon carcinoma cell line HCT116 and a human normal lung cell line MRC5 were cultured in DMEM medium containing 10% FBS. Each cultured cells were harvested, placed in 6 well plate at 1×10^6 cells/well, and cultured at 5% CO2 and 37° C. for 16 hrs. The compounds of the above Examples at 75 nM and 150 nM in DMEM containing 5% FBS were added to the cells in each well, and after 24 hrs a change in the cell cycle was analyzed using a flow cytometry. Media of treatment groups and a control group were removed, trypsin was added to isolate cells from the plates and the cells were centrifuged at 1000 g for 3 min. The isolated cells were washed with a cold phosphate buffer (PBS) two times. Afterwards, 1 ml of 70% ethanol was added to the cells and the cells were maintained at 4° C. for 30 min or more to fix the cells. The fixed cells were centrifuged at 1000 g for 3 min to remove ethanol, and washed with phosphate buffer (PBS) two times to remove ethanol completely. The washed cells were suspended in 250 ul of PBS, 6.25 ul of 10 mg/ml RNaseA was added to the suspension and reacted for 15 min at room temperature to degrade all RNA. 12.5 ul of 1 mg/ml propidium iodide (PI, sigma) was added to stain intracellular DNA. The cell cycles of 10,000 stained cells were measured using FACS calibur (Becton-Dickinson, USA) and cell numbers present in G1, S and G2/M phases were calculated as percentage using a cell cycle analysis program. Tables 3 and 4 show the results of cell cycle analysis for the compound obtained in Example 1 in cancer cells and normal cells, respectively."}, "[2]": {"tested_on": "Human colon carcinoma HCT116 cell line", "assay": "Tumor growth inhibition in an animal model (HCT116 xenograft)", "format": "in vivo, Balb/c nude mouse", "settings": "oral daily for 12 days; for tumor growth inhibition: vs vehicle control", "procedure": "Tumor size was measured twice a week using Caliper. […] A vehicle control was 20% propylene glycol (PG) and a positive control was Xeloda at 100 mg/kg."}}, "note": "Where a name gives a salt, the structure may show the parent alone."}
{"smiles": "Cc1cc(-c2nc(-c3ccnc(N)c3F)ccc2O)nc(N)n1", "note": "[Example 71, 2′-amino-6-(2-amino-6-methylpyrimidin-4-yl)-3′-fluoro-[2,4′-bipyridin]-5-ol 3hydrochloride]", "values": [{"measurement": "inhibition at 0.0125 µM", "setting": "Aβ (amyloid β protein); 12.5 nM", "value": 37.6, "unit": "%"}, {"measurement": "inhibition at 0.025 µM", "setting": "Aβ (amyloid β protein); 25 nM", "value": 36.2, "unit": "%"}, {"measurement": "inhibition at 0.05 µM", "setting": "Aβ (amyloid β protein); 50 nM", "value": 46.7, "unit": "%"}, {"measurement": "inhibition at 0.075 µM", "setting": "Aβ (amyloid β protein); 75 nM", "value": 76.8, "unit": "%"}, {"measurement": "inhibition at 0.1 µM", "setting": "Aβ (amyloid β protein); 100 nM", "value": 100, "unit": "%"}]}
{"smiles": "Nc1nccc(-c2ccc(O)c(-c3ccnc(N)n3)n2)n1", "note": "[Example 1, 2,6-bis(2-aminopyrimidin-4-yl)pyridin-3-ol]", "values": [{"measurement": "G1 (cell numbers as percentage)", "setting": "[1]; HCT116, 75 nM", "value": 22.3, "unit": "%"}, {"measurement": "G2/M (cell numbers as percentage)", "setting": "[1]; HCT116, 75 nM", "value": 51.5, "unit": "%"}, {"measurement": "Polyploidy (cell numbers as percentage)", "setting": "[1]; HCT116, 75 nM", "value": 16.3, "unit": "%"}, {"measurement": "S (cell numbers as percentage)", "setting": "[1]; HCT116, 75 nM", "value": 5.3, "unit": "%"}, {"measurement": "Sub-G1 (cell numbers as percentage)", "setting": "[1]; HCT116, 75 nM", "value": 4.9, "unit": "%"}, {"measurement": "G1 (cell numbers as percentage)", "setting": "[1]; HCT116, 150 nM", "value": 4.3, "unit": "%"}, {"measurement": "G2/M (cell numbers as percentage)", "setting": "[1]; HCT116, 150 nM", "value": 54.4, "unit": "%"}, {"measurement": "Polyploidy (cell numbers as percentage)", "setting": "[1]; HCT116, 150 nM", "value": 23.3, "unit": "%"}, {"measurement": "S (cell numbers as percentage)", "setting": "[1]; HCT116, 150 nM", "value": 2.6, "unit": "%"}, {"measurement": "Sub-G1 (cell numbers as percentage)", "setting": "[1]; HCT116, 150 nM", "value": 5.8, "unit": "%"}]}
{"smiles": "Nc1nccc(-c2ccc(O)c(-c3ccnc(N)n3)n2)n1", "note": "[Example 61, 2,6-bis(2-aminopyrimidin-4-yl)pyridin-3-ol 3hydrochloride]", "values": [{"measurement": "Tumor size", "setting": "[2]; 1 mpk", "value": "1082.4 ± 994.6", "unit": "mm^3"}, {"measurement": "tumor growth inhibition", "setting": "[2]; 1 mpk", "value": 41.3, "unit": "%"}, {"measurement": "Tumor size", "setting": "[2]; 3 mpk", "value": "773.7 ± 253.9", "unit": "mm^3"}, {"measurement": "tumor growth inhibition", "setting": "[2]; 3 mpk", "value": 58.0, "unit": "%"}, {"measurement": "Tumor size", "setting": "[2]; 10 mpk", "value": "647.4 ± 462.1", "unit": "mm^3"}, {"measurement": "tumor growth inhibition", "setting": "[2]; 10 mpk", "value": 64.9, "unit": "%"}, {"measurement": "Tumor size", "setting": "[2]; 30 mpk", "value": "403.4 ± 224.1", "unit": "mm^3"}, {"measurement": "tumor growth inhibition", "setting": "[2]; 30 mpk", "value": 78.1, "unit": "%"}]}
